According to patent US20190343908A1, “Therapeutic Combination for the Treatment of Cancer” (Nerium Biotechnology Inc., priority 2011, published 2019):

Columns and labels:
[1] = system: MCF-7 (human breast cancer); assay: Crystal Violet viability assay, MCF-7; type: cell-based; set-up: key: absorbance at 570 nm (second wavelength subtracted)
Text: (§1) The Sulforhodamine B and Crystal Violet assays provide information about protein and were used to complement the Methyl-Tetrazolium dye assay. […] It is used for the quantification of cellular proteins of cultured cells. The assay using Crystal Violet, a dye that binds electrostatically to proteins and stains DNA, provides a reliable, simple assay for measuring viability of cells.
(§2) The Methyl Tetrazolium, Sulforhodamine B, and Crystal Violet assays were used to assess cell viabilities. The incubation times were 24 hours, 48 hours, and 72 hours. The Nerium oleander extract Anvirzel™ (a hot water extract of oleander obtained from Salud Integral, Honduras) was tested in concentrations ranging from 0.01 ng/mL to 10 ng/mL.
(§3) Cells were detached by trypsinization (Trypsin-0.25% EDTA, Invitrogen, 25200-072) during the logarithmic phase of culture growth and plated in 96-well plates (18.000 cells/well) (Corning, Costar 359) in a final volume of 200 μl of medium per well. […] The absorbance was measured after 24 hours, 48 hours, and 72 hours of incubation.
[…] Formalin was removed and 0.25% aqueous crystal violet (Sigma, HT901), dissolved in water, was added for 10 minutes at RT. Unbound Crystal Violet was rinsed by washing with water and finally 33% acetic acid was added to dissolve the dye.
(§4) The optical density of each plate was measured on a μQuant spectrophotometer and the data were analyzed with Gen5 software (μQuant Biomolecular Spectrophotometer MQX200 and Gen5™ Microplate Data Collection & Analysis software, BioTek® Instruments. Inc, April 2008). Absorbance was measured at 570 nm for all assays and a second wavelength was measured in order to subtract noise. For the Methyl-Tetrazolium assay this second wavelength was 630 nm and for the Sulforhodamine B and Crystal Violet assays it was 690 nm.

[2] = system: LNCaP prostate cancer cell line; assay: Sulforhodamine B viability assay, LNCaP; type: cell-based, human; conditions: for ABSORBANCE: LNCaP, 0.1 μg/mL cisplatin
Text: Three different viability assays were chosen to complement each other and yielded results dependent on concentration and cell line: the Methyl Tetrazolium dye assay, the Sulforhodamine B fluorescent dye assay, and the Crystal Violet dye assay.
as §1, §2, §3
For the Sulforhodamine B assay, 96-well plates were fixed by 10% trichloroacetic acid (Fluka, 91228) and were incubated at 4° C. for 1 hour. Afterwards, plates were rinsed with water and cells were stained with 0.4% Sulforhodamine B (Sigma, 341738), dissolved in 1% acetic acid (Carlo Ebra, 401422) for 15 minutes at room temperature (RT). The unbound stain was washed twice with 1% acetic acid. Finally, 10 mM Tris Buffer pH 10.5 (Sigma, T6791) was added to dissolve the dye.
as §4

Which results are given for N.N.[Cl][Pt][Cl] [cisplatin]?
CVE Average ([1]; MCF-7, Run 2, 24 h, 0.1 μg/ml CDDP): 0.71; CVE Average ([1]; MCF-7, Run 2, 24 h, 1 μg/ml CDDP): 0.192; CVE Average ([1]; MCF-7, Run 2, 24 h, 10 μg/ml CDDP): 0.612; CVE Average ([1]; MCF-7, Run 2, 24 h, 100 μg/ml CDDP): 0.288; CVE Average ([1]; MCF-7, Run 2, 48 h, 0.1 μg/ml CDDP): 0.664; CVE Average ([1]; MCF-7, Run 2, 48 h, 1 μg/ml CDDP): 0.239; CVE Average ([1]; MCF-7, Run 2, 48 h, 10 μg/ml CDDP): 0.24; CVE Average ([1]; MCF-7, Run 2, 48 h, 100 μg/ml CDDP): 0.221; CVE Average ([1]; MCF-7, Run 2, 72 h, 0.1 μg/ml CDDP): 0.678; CVE Average ([1]; MCF-7, Run 2, 72 h, 1 μg/ml CDDP): 0.151; CVE Average ([1]; MCF-7, Run 2, 72 h, 100 μg/ml CDDP): 0.147; CVE Average ([1]; MCF-7, Run 3, 24 h, 0.1 μg/ml CDDP): 0.454; CVE Average ([1]; MCF-7, Run 3, 24 h, 1 μg/ml CDDP): 0.183; CVE Average ([1]; MCF-7, Run 3, 24 h, 10 μg/ml CDDP): 0.307; CVE Average ([1]; MCF-7, Run 3, 48 h, 0.1 μg/ml CDDP): 0.811; CVE Average ([1]; MCF-7, Run 3, 48 h, 1 μg/ml CDDP): 0.871; CVE Average ([1]; MCF-7, Run 3, 48 h, 10 μg/ml CDDP): 0.769; CVE Average ([1]; MCF-7, Run 3, 48 h, 100 μg/ml CDDP): 0.439; CVE Average ([1]; MCF-7, Run 3, 72 h, 0.1 μg/ml CDDP): 1.312; CVE Average ([1]; MCF-7, Run 3, 72 h, 1 μg/ml CDDP): 0.51; CVE Average ([1]; MCF-7, Run 3, 72 h, 10 μg/ml CDDP): 0.449; CVE Average ([1]; MCF-7, Run 3, 72 h, 100 μg/ml CDDP): 0.253; CVE Average ([1]; MCF-7 Run 1, 24 h, 0.1 μg/ml CDDP): 0.978; CVE Average ([1]; MCF-7 Run 1, 24 h, 1 μg/ml CDDP): 0.376; CVE Average ([1]; MCF-7 Run 1, 24 h, 10 μg/ml CDDP): 0.468; CVE Average ([1]; MCF-7 Run 1, 24 h, 100 μg/ml CDDP): 0.285; CVE Average ([1]; MCF-7 Run 1, 48 h, 0.1 μg/ml CDDP): 1.112; CVE Average ([1]; MCF-7 Run 1, 48 h, 10 μg/ml CDDP): 0.303; CVE Average ([1]; MCF-7 Run 1, 48 h, 100 μg/ml CDDP): 0.153; CVE Average ([1]; MCF-7 Run 1, 72 h, 0.1 μg/ml CDDP): 1.632; CVE Average ([1]; MCF-7 Run 1, 72 h, 1 μg/ml CDDP): 0.325; CVE Average ([1]; MCF-7 Run 1, 72 h, 10 μg/ml CDDP): 0.237; CVE Average ([1]; MCF-7 Run 1, 72 h, 100 μg/ml CDDP): 0.284; SRB Average ([2]; LNCaP Run 3, 24 h, 0.1 μg/ml CDDP): 1.975; SRB Average ([2]; LNCaP Run 3, 24 h, 1 μg/ml CDDP): 1.541; SRB Average ([2]; LNCaP Run 3, 24 h, 10 μg/ml CDDP): 1.242; SRB Average ([2]; LNCaP Run 3, 24 h, 100 μg/ml CDDP): 1.2; SRB Average ([2]; LNCaP Run 3, 48 h, 0.1 μg/ml CDDP): 1.761; SRB Average ([2]; LNCaP Run 3, 48 h, 1 μg/ml CDDP): 1.56; SRB Average ([2]; LNCaP Run 3, 48 h, 10 μg/ml CDDP): 1.46; SRB Average ([2]; LNCaP Run 3, 48 h, 100 μg/ml CDDP): 1.284; SRB Average ([2]; LNCaP Run 3, 72 h, 0.1 μg/ml CDDP): 2.009; SRB Average ([2]; LNCaP Run 3, 72 h, 1 μg/ml CDDP): 1.584; SRB Average ([2]; LNCaP Run 3, 72 h, 10 μg/ml CDDP): 1.561; SRB Average ([2]; LNCaP Run 3, 72 h, 100 μg/ml CDDP): 1.421; ABSORBANCE ([2]; 48 h): 1.681; ABSORBANCE ([2]; 72 h): 1.766; Average SRB 24 h ([2]; Run 1, 0.1 μg/ml CDDP): 1.611; Average SRB 48 h ([2]; Run 1, 0.1 μg/ml CDDP): 2.798; Average SRB 72 h ([2]; Run 1, 0.1 μg/ml CDDP): 2.532; Average SRB 24 h ([2]; Run 1, 1 μg/ml CDDP): 1.294; Average SRB 48 h ([2]; Run 1, 1 μg/ml CDDP): 2.888; Average SRB 72 h ([2]; Run 1, 1 μg/ml CDDP): 2.483; Average SRB 24 h ([2]; Run 1, 10 μg/ml CDDP): 1.205; Average SRB 48 h ([2]; Run 1, 10 μg/ml CDDP): 2.893; Average SRB 72 h ([2]; Run 1, 10 μg/ml CDDP): 2.648; Average SRB 24 h ([2]; Run 1, 100 μg/ml CDDP): 1.2; Average SRB 48 h ([2]; Run 1, 100 μg/ml CDDP): 2.555; Average SRB 72 h ([2]; Run 1, 100 μg/ml CDDP): 2.649; Average SRB 24 h ([2]; Run 2, 0.1 μg/ml CDDP): 1.78; Average SRB 48 h ([2]; Run 2, 0.1 μg/ml CDDP): 1.681; Average SRB 72 h ([2]; Run 2, 0.1 μg/ml CDDP): 1.766; Average SRB 24 h ([2]; Run 2, 1 μg/ml CDDP): 1.495; Average SRB 48 h ([2]; Run 2, 1 μg/ml CDDP): 1.14; Average SRB 72 h ([2]; Run 2, 1 μg/ml CDDP): 1.396; Average SRB 24 h ([2]; Run 2, 10 μg/ml CDDP): 0.982; Average SRB 48 h ([2]; Run 2, 10 μg/ml CDDP): 1.077; Average SRB 72 h ([2]; Run 2, 10 μg/ml CDDP): 1.28; Average SRB 24 h ([2]; Run 2, 100 μg/ml CDDP): 0.985; Average SRB 48 h ([2]; Run 2, 100 μg/ml CDDP): 1.138; Average SRB 72 h ([2]; Run 2, 100 μg/ml CDDP): 1.25
